Values joined by “and” are separate entries in the source; they are usually repeats but may differ in a detail not shown here. Equal entries are not always repeated.
Assays:
[1] = Internal dosimetry of PFOA and GenX in maternal serum, maternal liver, amniotic fluid and whole embryos (UPLC-MS/MS); assay type: in vivo, mouse (CD-1)
Method: Solid tissues were homogenized in RODI water at a ratio of approximately 1:3 tissue mass (milligrams) to liquid volume (microliters). Maternal serum, amniotic fluid, and tissue homogenates ( 25μL ) were spiked with internal standard suspended in 0.1M formic acid in a denaturation step, followed by a subsequent protein crash using ice-cold acetonitrile. Samples were vortex mixed after addition of formic acid and acetonitrile and then centrifuged at 10,000×g for 5 min. Extract supernatants were separated using a Waters ACQUITY UPLC® (Waters Corporation) fitted with a Waters ACQUITY UPLC® BEH C18 Column ( 130Å; 1.7μm; 2.1mm×50mm ). Detection was performed using a Waters Quattro Premier™ XE tandem quadrupole mass spectrometer in negative ionization mode.

[2] = test system: placenta; assay: Placental thyroid hormone quantification (HPLC-MS/MS); assay type: in vivo, mouse (CD-1); details: E17.5
Method: Thyroid hormones (T3, triiodothyronine; T4, thyroxine; rT3, reverse triiodothyronine) in placenta were analyzed according to the methods described in Leonetti et al. ([2016]). Briefly, ∼300mg ( 207–526mg ) of two to three pooled placental tissues of same-sex embryos was homogenized and digested for 16 h overnight in PRONASE® Protease (Streptomyces griseus) solution (EMD Millipore Corp.). Each pooled sample of two to three placentas was considered as one biological replicate and included placentas from the same litter when possible. Three biological replicates were used for each treatment group and each sex. Samples were spiked with an antioxidant solution (containing 37.5mg/mL each of citric acid, ascorbic acid, and dithiothreitol) and C13 isotopically labeled internal standards (T4, T3, and rT3), and cold acetone was added to stop the digestion reaction. Samples were vortex mixed and centrifuged three times for 2 min at 10,000 relative centrifugal force (rcf), and the supernatants were collected and combined. Sample pH was adjusted with 6M hydrochloric acid to pH<2 . A liquid–liquid extraction with cyclopentane was performed and the cyclopentane layer discarded; briefly, 1mL of cyclopentane was added to the supernatant and vortexed before the sample was centrifuged for 3 min at 3,000 rcf and the cyclopentane layer discarded, and this was repeated three times. A liquid–liquid extraction with ethyl acetate was performed; briefly, 3mL of ethyl acetate was added to the extract and vortexed before being shaken on a plate shaker for 30 min and centrifuged for 3 min at 3,000 rcf, and the ethyl acetate layer collected; this was repeated three times. Ethyl acetate extracts were dried down to 50μL under a gentle nitrogen stream and resuspended in 1mL of 0.01M hydrochloric acid in 10% methanol. Samples were purified by solid-phase extraction using SampliQ Optimized Polymer Technology (OPT) cartridges ( 3mL , 50mg; Agilent Technologies). Final extracts in 400μL of 1:1 methanol:water were filtered using Whatman® Mini-UniPrep® Syringeless Filters [Polytetrafluoroethylene (PTFE), 0.2μm; GE Healthcare]. Extracts were analyzed on an Agilent high-performance liquid chromatography (HPLC) 1260 with a Synergi™ 50mm×2mm Polar-RP column ( 2.5μm; Phenomenex) coupled to an Agilent model 6460 tandem mass spectrometer with electrospray ionization (HPLC-MS/MS-ESI). Mobile phases consisted of 10 mM formic acid in methanol and 10 mM formic acid in water. Laboratory processing blanks were extracted alongside the placental tissues to monitor background levels. No TH were detected in the lab blanks. Method detection limits (MDLs) were calculated using a signal-to-noise value of 3 for each analyte (T3, T4, and rT3). Values were normalized to the wet weight of placenta extracted for a final value of nanogram hormone/gram placenta. Values below the MDL (T4, 0.84 ng/g; T3, 0.42 ng/g; rT3, 0.67 ng/g ) were imputed using the calculation MDL×0.5 , and values lacking a quantifiable peak on mass spectrometry were excluded from the analysis.
TH concentrations in the placenta were quantified, and the ratios of T3:T4 and rT3:T4 in E17.5 placentas were assessed to evaluate potential disruption of peripheral TH control (e.g., impacts on thyroid deiodinase activity). Each end point was analyzed for sex×treatment interaction or for an overall effect of sex. Placenta TH were analyzed by analysis of variance using lme4 ([Bates et al. 2014]). Simultaneous tests for general linear hypotheses were corrected for multiple comparisons of means using Tukey contrasts in the package multcomp ([Hothorn et al. 2009]). Placental TH and their ratios were initially analyzed with embryo sex as an interaction term in the model, with the dose group as the predictor variable. Inclusion of a sex interaction or sex covariate in the final model was examined in a stepwise fashion. Internal dosimetry data were analyzed by analysis of variance. […]

## N.O=C(O)C(F)(OC(F)(F)C(F)(F)C(F)(F)F)C(F)(F)F (stereo not drawn) [GenX, ammonium 2,3,3,3-tetrafluoro-2-(heptafluoropropoxy)propanoate]
[1]; 2 mg/kg/d
  Serum concentration, pregnant mice: ~33000 ng/mL
[1]; 10 mg/kg/d throughout gestation
  Dam serum concentration: ~100 µg/mL
[1]; E11.5, 2 mg/kg/d
  Amniotic fluid concentration: 3.6 ± 2.2 µg/mL
  Maternal liver concentration: 5.45 ± 3.43 µg/g
  Maternal serum concentration: 33.5 ± 15.7 µg/mL
  Whole embryo concentration: 0.91 ± 0.22 µg/g and 0.91 ± 0.2 µg/g
[1]; E11.5, 2 mg/kg/d GenX vs 1 mg/kg/d PFOA
  GenX accumulation in dam serum higher than accumulation of PFOA: 32%
[1]; E11.5, 10 mg/kg/d
  Amniotic fluid concentration: 9.3 ± 2.0 µg/mL
  Maternal liver concentration: 19.9 ± 4.2 µg/g
  Maternal serum concentration: 118.1 ± 10.4 µg/mL
  Whole embryo concentration: 3.21 ± 0.51 µg/g and 3.21 ± 0.5 µg/g
[1]; E17.5, 2 mg/kg/d
  Female embryo concentration: 3.39 ± 1.44 µg/g
  Male embryo concentration: 3.04 ± 1.27 µg/g
  Maternal liver concentration: 4.56 ± 2.80 µg/g
  Maternal serum concentration: 22.9 ± 17.1 µg/mL
  Whole embryo concentration: 3.23 ± 1.28 µg/g
[1]; E17.5, 10 mg/kg/d
  Female embryo concentration: 6.89 ± 2.72 µg/g
  Male embryo concentration: 7.55 ± 3.35 µg/g
  Maternal liver concentration: 14.2 ± 7.6 µg/g
  Maternal serum concentration: 58.5 ± 34.5 µg/mL
  Whole embryo concentration: 7.69 ± 2.92 µg/g
[2]; 2 mg/kg/d
  Placental T3: 0.3±0.2 [5 (0, 5)] ng/g
  Placental T4: 5.3±1.7 [6 (6, 0)] ng/g
  Placental rT3: 1.7±0.8 [6 (6, 0)] ng/g
[2]; 10 mg/kg/d
  Placental T3: 0.2±0 [6 (0, 6)] ng/g
  Placental T4: 6.1±1.1 [6 (6, 0)] ng/g
  Placental rT3: 1.6±0.3 [6 (6, 0)] ng/g
[2]; female, 2 mg/kg/d
  Placental T3: 0.3 ± 0.2 ng/g
  Placental T4: 5.9 ± 2.3 ng/g
  Placental rT3: 2.3 ± 0.6 ng/g
[2]; female, 10 mg/kg/d
  Placental T3: 0.2 ± 0 ng/g
  Placental T4: 6.5 ± 1.4 ng/g
  Placental rT3: 1.9 ± 0.1 ng/g
[2]; male, 2 mg/kg/d
  Placental T3: 0.2 ± 0 ng/g
  Placental T4: 4.7 ± 1.1 ng/g
  Placental rT3: 1.0 ± 0.2 ng/g
[2]; male, 10 mg/kg/d
  Placental T3: 0.2 ± 0 ng/g
  Placental T4: 5.8 ± 0.7 ng/g
  Placental rT3: 1.3 ± 0.3 ng/g

## O=C(O)C(F)(F)C(F)(F)C(F)(F)C(F)(F)C(F)(F)C(F)(F)C(F)(F)F [PFOA, Perfluorooctanoic acid]
[1]; E11.5, 1 mg/kg/d
  Amniotic fluid concentration: 4.6 ± 2.8 µg/mL
  Maternal liver concentration: 48.3 ± 12.5 µg/g
  Maternal serum concentration: 25.4 ± 3.7 µg/mL
  Whole embryo concentration: 0.80 ± 0.10 µg/g
[1]; E11.5, 5 mg/kg/d
  Amniotic fluid concentration: 8.8 ± 2.7 µg/mL
  Maternal liver concentration: 151.5 ± 18.5 µg/g
  Maternal serum concentration: 117.3 ± 20.6 µg/mL
  Whole embryo concentration: 2.34 ± 0.27 µg/g and 2.34 ± 0.3 µg/g
[1]; E17.5, 1 mg/kg/d
  Female embryo concentration: 5.78 ± 0.81 µg/g
  Male embryo concentration: 5.78 ± 0.82 µg/g
  Maternal liver concentration: 181.1 ± 46.0 µg/g
  Maternal serum concentration: 18.7 ± 3.2 µg/mL
  Whole embryo concentration: 5.78 ± 0.71 µg/g
[1]; E17.5, 5 mg/kg/d
  Female embryo concentration: 16.1 ± 2.75 µg/g
  Male embryo concentration: 16.9 ± 1.88 µg/g
  Maternal liver concentration: 159.2 ± 21.7 µg/g
  Maternal serum concentration: 95.1 ± 14.1 µg/mL
  Whole embryo concentration: 16.4 ± 1.75 µg/g
[1]; by E17.5, regardless of PFOA dose group
  Maximum bioaccumulation in maternal liver: 160–180 μg PFOA/g liver
[2]; 1 mg/kg/d
  Placental T3: 0.2±0 [6 (0, 6)] ng/g
  Placental T3:T4 ratio: 0.09±0.03 [6]
  Placental T4: 2.5±1.0 [6 (6, 0)] ng/g
  Placental rT3: 0.7±0.4 [6 (3, 3)] ng/g
  Placental rT3:T4 ratio: 0.30±0.21 [6]
[2]; 5 mg/kg/d
  Placental T3: 0.2±0 [4 (0, 4)] ng/g
  Placental T3:T4 ratio: 0.07±0.02 [4]
  Placental T4: 2.8±1.3 [6 (6, 0)] ng/g
  Placental rT3: 1.4±0.7 [5 (5, 0)] ng/g
  Placental rT3:T4 ratio: 0.45±0.05 [5]
[2]; female, 1 mg/kg/d
  Placental T3: 0.2 ± 0 ng/g
  Placental T3:T4 ratio: 0.104 ± 0.02
  Placental T4: 2.0 ± 0.4 ng/g
  Placental rT3:T4 ratio: 0.401 ± 0.22
[2]; female, 5 mg/kg/d
  Placental T3: 0.2 ± 0 ng/g
  Placental T3:T4 ratio: 0.065 ± 0.02
  Placental rT3: 1.6 ± 1.0 ng/g
  Placental rT3:T4 ratio: 0.441 ± 0.05
[2]; male, 1 mg/kg/d
  Placental T3: 0.2 ± 0 ng/g
  Placental T3:T4 ratio: 0.071 ± 0.02
  Placental rT3: 0.5 ± 0.4 ng/g
  Placental rT3:T4 ratio: 0.196 ± 0.17
[2]; male, 5 mg/kg/d
  Placental T3: 0.2 ng/g
  Placental T3:T4 ratio: 0.083
  Placental rT3: 1.2 ± 0.1 ng/g
  Placental rT3:T4 ratio: 0.454 ± 0.07
